Laboratory results taken from patent US20230085307A1, “PYRIDAZINONE COMPOUND AND HERBICIDE” (NISSAN CHEMICAL CORPORATION, priority 2019, published 2023).

What was measured:
[1] = system: green foxtail; test: Test Example 4: herbicidal effect by soil treatment (Table 19, symbol G); format: in vivo, green foxtail (Setaria viridis); details: amount of applied herbicide 320 g/ha
Procedure, shortened: (§1)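 Applied as a water-diluted emulsion, the compound was sprayed onto soil covering newly sown seeds. Evaluation came three weeks after application, in a greenhouse held at 25° C. to 30° C.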

[2] = system: Italian ryegrass; test: Test Example 4: herbicidal effect by soil treatment (Table 19, symbol K); format: in vivo, Italian ryegrass (Lolium multiflorum); details: amount of applied herbicide 320 g/ha
Procedure, shortened: as §1

[3] = system: southern crabgrass; test: Test Example 5: herbicidal effect by foliage application, plastic box (Table 20, symbol F); format: in vivo, southern crabgrass (Digitaria ciliaris); details: foliage application, 320 g/ha, three weeks after application
Procedure, shortened: (§2)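 Sow seeds spot-wise in sterilized diluvial soil; cover with ~1.5 cm soil. Grow 14 days in greenhouse, 25° C. to 30° C. Spray foliage with emulsion diluted to predetermined amount. Rate effect after 3 weeks.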

[4] = system: blackgrass; test: Test Example 5: herbicidal effect by foliage application, plastic box (Table 20, symbol J); format: in vivo, blackgrass (Alopecurus myosuroides); details: foliage application, 320 g/ha, three weeks after application
Procedure, shortened: as §2

[5] = system: Italian ryegrass; test: Test Example 5: herbicidal effect by foliage application, plastic box (Table 20, symbol K); format: in vivo, Italian ryegrass (Lolium multiflorum); details: foliage application, 320 g/ha, three weeks after application
Procedure, shortened: as §2

[6] = system: windgrass; test: Test Example 4: herbicidal effect by soil treatment (Table 19, symbol L); format: in vivo, windgrass (Apera spica-venti); details: amount of applied herbicide 320 g/ha
Procedure, shortened: as §1

[7] = system: wild oat; test: Test Example 5: herbicidal effect by foliage application, plastic box (Table 20, symbol I); format: in vivo, wild oat (Avena fatua); details: foliage application, 320 g/ha, three weeks after application
Procedure, shortened: as §2

[8] = system: chickweed; test: Test Example 4: herbicidal effect by soil treatment (Table 19, symbol P); format: in vivo, common chickweed (Stellaria media); details: amount of applied herbicide 320 g/ha
Procedure, shortened: as §1

[9] = system: windgrass; test: Test Example 5: herbicidal effect by foliage application, plastic box (Table 20, symbol L); format: in vivo, windgrass (Apera spica-venti); details: foliage application, 320 g/ha, three weeks after application
Procedure, shortened: as §2

[10] = system: southern crabgrass; test: Test Example 4: herbicidal effect by soil treatment (Table 19, symbol F); format: in vivo, southern crabgrass (Digitaria ciliaris); details: amount of applied herbicide 320 g/ha
Procedure, shortened: as §1

[11] = system: lambsquarters; test: Test Example 5: herbicidal effect by foliage application, plastic box (Table 20, symbol O); format: in vivo, lambsquarters (Chenopodium album); details: foliage application, 320 g/ha, three weeks after application
Procedure, shortened: as §2

[12] = system: blackgrass; test: Test Example 4: herbicidal effect by soil treatment (Table 19, symbol J); format: in vivo, blackgrass (Alopecurus myosuroides); details: amount of applied herbicide 320 g/ha
Procedure, shortened: as §1

[13] = system: lambsquarters; test: Test Example 4: herbicidal effect by soil treatment (Table 19, symbol O); format: in vivo, lambsquarters (Chenopodium album); details: amount of applied herbicide 320 g/ha
Procedure, shortened: as §1

[14] = system: rice flat sedge; test: Test Example 3: herbicidal effect by foliage application, Wagner pot (Table 18, symbol E); format: in vivo, rice flat sedge (Cyperus iria); details: 320 g/ha
Procedure, shortened: (§3)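 Plants were sown in alluvial soil held under 0.1–0.5 cm standing water and grown 14 days in a greenhouse at 25–30 °C. An emulsifiable formulation, water-diluted to the set dose, was then sprayed onto the foliage, and effects were scored three weeks later using previously defined criteria.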

[15] = system: green foxtail; test: Test Example 5: herbicidal effect by foliage application, plastic box (Table 20, symbol G); format: in vivo, green foxtail (Setaria viridis); details: foliage application, 320 g/ha, three weeks after application
Procedure, shortened: as §2

[16] = system: wild oat; test: Test Example 4: herbicidal effect by soil treatment (Table 19, symbol I); format: in vivo, wild oat (Avena fatua); details: amount of applied herbicide 320 g/ha
Procedure, shortened: as §1

[17] = system: barnyard grass; test: Test Example 5: herbicidal effect by foliage application, plastic box (Table 20, symbol H); format: in vivo, barnyard grass (Echinochloa crus-galli); details: foliage application, 320 g/ha, three weeks after application
Procedure, shortened: as §2

[18] = system: persian speedwell; test: Test Example 4: herbicidal effect by soil treatment (Table 19, symbol R); format: in vivo, Persian speedwell (Veronica persica); details: amount of applied herbicide 320 g/ha
Procedure, shortened: as §1

[19] = system: barnyard grass; test: Test Example 4: herbicidal effect by soil treatment (Table 19, symbol H); format: in vivo, barnyard grass (Echinochloa crus-galli); details: amount of applied herbicide 320 g/ha
Procedure, shortened: as §1

[20] = system: Chinese sprangletop; test: Test Example 3: herbicidal effect by foliage application, Wagner pot (Table 18, symbol D); format: in vivo, chinese sprangletop (Leptochloa chinensis); details: 320 g/ha
Procedure, shortened: as §3

[21] = system: velvetleaf; test: Test Example 4: herbicidal effect by soil treatment (Table 19, symbol M); format: in vivo, velvetleaf (Abutilon theophrasti); details: amount of applied herbicide 320 g/ha
Procedure, shortened: as §1

[22] = system: barnyard grass; test: Test Example 3: herbicidal effect by foliage application, Wagner pot (Table 18, symbol H); format: in vivo, barnyard grass (Echinochloa crus-galli); details: 320 g/ha
Procedure, shortened: as §3

[23] = system: persian speedwell; test: Test Example 5: herbicidal effect by foliage application, plastic box (Table 20, symbol R); format: in vivo, Persian speedwell (Veronica persica); details: foliage application, 320 g/ha, three weeks after application
Procedure, shortened: as §2

[24] = system: redroot pigweed; test: Test Example 5: herbicidal effect by foliage application, plastic box (Table 20, symbol N); format: in vivo, redroot pigweed (Amaranthus retroflexus); details: foliage application, 320 g/ha, three weeks after application
Procedure, shortened: as §2

[25] = system: redroot pigweed; test: Test Example 4: herbicidal effect by soil treatment (Table 19, symbol N); format: in vivo, redroot pigweed (Amaranthus retroflexus); details: amount of applied herbicide 320 g/ha
Procedure, shortened: as §1

[26] = system: velvetleaf; test: Test Example 5: herbicidal effect by foliage application, plastic box (Table 20, symbol M); format: in vivo, velvetleaf (Abutilon theophrasti); details: foliage application, 320 g/ha, three weeks after application
Procedure, shortened: as §2

[27] = system: chickweed; test: Test Example 5: herbicidal effect by foliage application, plastic box (Table 20, symbol P); format: in vivo, common chickweed (Stellaria media); details: foliage application, 320 g/ha, three weeks after application
Procedure, shortened: as §2

SMILES: COc1ccc(F)cc1-c1sc2ccccc2c1-c1c(O)c(C)nn(C)c1=O [1-058]
- herbicidal effect rating, G: green foxtail [1]: 5 (Herbicidal rate of 90% or more (almost completely withered))
- herbicidal effect rating, K: Italian ryegrass [2]: 0 (Herbicidal rate of 5% or less (almost no effect))
- herbicidal effect grade, F: southern crabgrass [3]: 3 (Herbicidal rate of 40% or more and less than 70%)
- herbicidal effect grade, J: blackgrass [4]: 4 (Herbicidal rate of 70% or more and less than 90%)
- herbicidal effect grade, K: Italian ryegrass [5]: 4 (Herbicidal rate of 70% or more and less than 90%)
- herbicidal effect rating, L: windgrass [6]: 0 (Herbicidal rate of 5% or less (almost no effect))
- herbicidal effect grade, I: wild oat [7]: 1 (Herbicidal rate of 5% or more and less than 20%)
- herbicidal effect rating, P: chickweed [8]: 5 (Herbicidal rate of 90% or more (almost completely withered))
- herbicidal effect grade, L: windgrass [9]: 4 (Herbicidal rate of 70% or more and less than 90%)
- herbicidal effect rating, F: southern crabgrass [10]: 2 (Herbicidal rate of 20% or more and less than 40%)
- herbicidal effect grade, O: lambsquarters [11]: 0 (Herbicidal rate of 5% or less (almost no effect))
- herbicidal effect rating, J: blackgrass [12]: 2 (Herbicidal rate of 20% or more and less than 40%)
- herbicidal effect rating, O: lambsquarters [13]: 3 (Herbicidal rate of 40% or more and less than 70%)
- herbicidal effect on E (rice flat sedge), rating 0-5 [14]: 5 (Herbicidal rate of 90% or more (almost completely withered))
- herbicidal effect grade, G: green foxtail [15]: 4 (Herbicidal rate of 70% or more and less than 90%)
- herbicidal effect rating, I: wild oat [16]: 1 (Herbicidal rate of 5% or more and less than 20%)
- herbicidal effect grade, H: barnyard grass [17]: 3 (Herbicidal rate of 40% or more and less than 70%)
- herbicidal effect rating, R: persian speedwell [18]: 4 (Herbicidal rate of 70% or more and less than 90%)
- herbicidal effect rating, H: barnyard grass [19]: 3 (Herbicidal rate of 40% or more and less than 70%)
- herbicidal effect on D (Chinese sprangletop), rating 0-5 [20]: 3 (Herbicidal rate of 40% or more and less than 70%)
- herbicidal effect rating, M: velvetleaf [21]: 0 (Herbicidal rate of 5% or less (almost no effect))
- herbicidal effect on H (barnyard grass), rating 0-5 [22]: 4 (Herbicidal rate of 70% or more and less than 90%)
- herbicidal effect grade, R: persian speedwell [23]: 4 (Herbicidal rate of 70% or more and less than 90%)
- herbicidal effect grade, N: redroot pigweed [24]: 2 (Herbicidal rate of 20% or more and less than 40%)
- herbicidal effect rating, N: redroot pigweed [25]: 2 (Herbicidal rate of 20% or more and less than 40%)
- herbicidal effect grade, M: velvetleaf [26]: 1 (Herbicidal rate of 5% or more and less than 20%)
- herbicidal effect grade, P: chickweed [27]: 5 (Herbicidal rate of 90% or more (almost completely withered))
